# In US11173160B2 (UNIVERSITY OF PITTSBURGH—OF THE COMMONWEALTH SYSTEM OF …, priority 2019, dated 2021):
# “Also recorded” adds a separate entry of the source.
# Legend:
# [1] = test system: DIPG-IV cells expressing MYC S62D; experiment: EC50 of TG02 in DIPG-IV cells expressing MYC S62D; format: cell-based, human; conditions: MYC S62D vs empty vector control
# Protocol: (§1) Direct cell counts were performed using the Countess II FL Automated Cell Counter (ThermoFisher Scientific). Alamar blue viability (ThermoFisher Scientific) and the 5-bromo-2′-deoxyuridine (BrdU) incorporated cell proliferation assay (Cell Signaling Technology Cat #6813) were performed using the manufacturer's standard protocol. EC50 curve analysis was performed using raw fluorescent Alamar blue values that were inputted into PRISM 7.0. Drug concentrations were log 10 transformed and values normalized to percent viability with respect to vehicle treated cells. EC50 values were interpolated from a log inhibitor vs. normalized response with variable slope using a least square fit model.
# [2] = test system: DIPG-007, DIPG-IV, and SF8628 cells; experiment: direct Trypan-Blue automated cell count; format: cell-based, human; conditions: 50 nM of TG02, 9 days of treatment, vs vehicle
# Protocol: FIGS. 5A-5K provide that pharmacological inhibition of ERK5 triggered cell death and apoptosis in DIPG cells. […] (5C-5E).
# as §1
# [3] = test system: DIPG-13p and SF8628 cells; experiment: cell growth and Annexin-PI apoptosis assay; format: cell-based, human
# Protocol: FIG. 12E provides Annexin-PI quantification of DIPG cells treated in biological triplicates with ERK5 inhibitors at 48 h from (FIGS. 12C-12D).
# Apoptosis was quantified using the Pacific Blue Annexin V Apoptosis Detection Kit with propidium iodide (BioLegend, San Diego, Calif. Cat #640926). Analysis was performed at the Flow Cytometry Core, Rangos Research Center, UPMC Children's Hospital of Pittsburgh.
# [4] = target: ERK5 (Homo sapiens, UniProt Q13164); experiment: in vitro kinase assay of purified recombinant ERK5 and MYC; format: biochemical; conditions: ERK5 and ATP, 30 minutes at 30° C.
# Protocol: Purified active recombinant ERK5 protein was purchased from ThermoFisher Scientific (Cat #A32872) and purified recombinant MYC was purchased from Abcam (Cat #ab84132). Purified ERK5 and MYC were resuspended in 40 μl of 1× kinase buffer supplemented with […] ATP, 0.25 μg substrate, and 1.0 μg purified recombinant and active kinase. Samples were incubated in the presence or absence of an ERK5 inhibitor for 30 minutes at 30° C. The reaction was terminated with 20 μl 3×SDS sample buffer. Samples were then boiled at 100° C. for 5 minutes and then evaluated by western blotting using a phospho MYC ser62 antibody (1:1000). 1× Kinase Buffer recipe: 25 mM Tris (pH 7.5), 5 mM O-glycerophosphate, 2 mM DTT, 0.1 mM Na3VO4, 10 mM MgCl2.
# [5] = test system: DIPG-13p and DIPG-IV cells; experiment: cell viability with TG02 and/or RT; format: cell-based, human
# [6] = target: Lck (Homo sapiens, UniProt P06239); conditions: Source Millipore; 10-point titration in duplicates, done once; cited from earlier work
# Sequence of Lck (P06239 whole entry): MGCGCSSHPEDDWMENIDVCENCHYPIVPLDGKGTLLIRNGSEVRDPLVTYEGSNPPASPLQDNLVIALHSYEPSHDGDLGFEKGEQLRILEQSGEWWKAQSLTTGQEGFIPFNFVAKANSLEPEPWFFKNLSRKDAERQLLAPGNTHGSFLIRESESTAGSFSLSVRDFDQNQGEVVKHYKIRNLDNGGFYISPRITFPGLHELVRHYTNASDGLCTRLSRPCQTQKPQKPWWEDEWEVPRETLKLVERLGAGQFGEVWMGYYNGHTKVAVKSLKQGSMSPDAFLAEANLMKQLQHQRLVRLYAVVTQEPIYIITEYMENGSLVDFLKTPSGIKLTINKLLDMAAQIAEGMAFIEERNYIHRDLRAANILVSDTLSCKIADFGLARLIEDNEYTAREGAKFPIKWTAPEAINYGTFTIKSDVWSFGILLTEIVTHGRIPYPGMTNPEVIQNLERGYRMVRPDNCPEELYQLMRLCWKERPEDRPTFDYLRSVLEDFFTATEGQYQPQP
# [7] = target: TYK2 (Homo sapiens, UniProt P29597); conditions: Source Invitrogen; 10-point titration in duplicates, done once; cited from earlier work
# [8] = target: Fyn (Homo sapiens, UniProt P06241); conditions: Source Millipore; 10-point titration in duplicates, done once; cited from earlier work
# [9] = target: Aurora B (Homo sapiens, UniProt Q96GD4); conditions: cited from earlier work
# [10] = target: CaMKVI (Homo sapiens, UniProt Q16566); conditions: cited from earlier work
# [11] = target: CDK4 (Homo sapiens, UniProt P11802); conditions: cited from earlier work
# [12] = target: CDK6 (Homo sapiens, UniProt Q00534); conditions: cited from earlier work
# [13] = target: Chk1 (Homo sapiens, UniProt O14757); conditions: cited from earlier work
# [14] = cited from earlier work
# [15] = target: IGF-1R (Homo sapiens, UniProt P08069); conditions: cited from earlier work
# Sequence of IGF-1R (P08069 31-1367): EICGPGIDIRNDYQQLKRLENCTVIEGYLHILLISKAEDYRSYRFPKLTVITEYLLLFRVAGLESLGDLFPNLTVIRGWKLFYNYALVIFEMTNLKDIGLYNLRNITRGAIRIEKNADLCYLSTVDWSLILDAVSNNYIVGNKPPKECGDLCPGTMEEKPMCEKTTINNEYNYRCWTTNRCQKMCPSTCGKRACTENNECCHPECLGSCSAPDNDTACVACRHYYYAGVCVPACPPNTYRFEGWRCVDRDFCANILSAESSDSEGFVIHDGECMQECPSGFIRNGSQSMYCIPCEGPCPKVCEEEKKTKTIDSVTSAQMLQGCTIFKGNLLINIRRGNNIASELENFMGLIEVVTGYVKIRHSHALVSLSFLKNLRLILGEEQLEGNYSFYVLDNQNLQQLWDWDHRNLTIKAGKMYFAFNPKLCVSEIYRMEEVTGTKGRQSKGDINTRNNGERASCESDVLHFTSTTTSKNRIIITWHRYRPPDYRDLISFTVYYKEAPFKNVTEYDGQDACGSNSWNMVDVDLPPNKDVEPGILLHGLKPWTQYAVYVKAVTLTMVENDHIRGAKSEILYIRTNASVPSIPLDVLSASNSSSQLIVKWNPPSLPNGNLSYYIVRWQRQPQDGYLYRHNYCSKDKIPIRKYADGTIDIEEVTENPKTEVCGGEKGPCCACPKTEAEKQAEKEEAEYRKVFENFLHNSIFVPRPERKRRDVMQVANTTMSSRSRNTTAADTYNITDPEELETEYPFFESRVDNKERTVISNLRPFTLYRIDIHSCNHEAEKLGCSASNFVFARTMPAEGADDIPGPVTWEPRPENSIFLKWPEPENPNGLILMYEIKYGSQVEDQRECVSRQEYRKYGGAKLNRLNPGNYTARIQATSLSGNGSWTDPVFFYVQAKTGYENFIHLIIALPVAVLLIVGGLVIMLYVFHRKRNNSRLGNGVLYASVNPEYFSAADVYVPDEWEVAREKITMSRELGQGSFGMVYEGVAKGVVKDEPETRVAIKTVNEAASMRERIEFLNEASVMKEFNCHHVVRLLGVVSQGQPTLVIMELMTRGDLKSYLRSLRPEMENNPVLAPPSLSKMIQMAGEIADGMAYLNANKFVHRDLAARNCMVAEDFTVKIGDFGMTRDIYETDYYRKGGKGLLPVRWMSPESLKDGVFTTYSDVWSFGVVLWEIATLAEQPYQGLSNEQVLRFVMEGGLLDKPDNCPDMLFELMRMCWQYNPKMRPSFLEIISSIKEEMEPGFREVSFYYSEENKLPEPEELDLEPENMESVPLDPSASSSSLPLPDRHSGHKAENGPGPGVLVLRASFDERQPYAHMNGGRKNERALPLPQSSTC
# [16] = target: IRAK4 (Homo sapiens, UniProt Q9NWZ3); conditions: cited from earlier work
# [17] = target: KDR (Homo sapiens, UniProt P35968); conditions: cited from earlier work
# Sequence of KDR (P35968 20-1356): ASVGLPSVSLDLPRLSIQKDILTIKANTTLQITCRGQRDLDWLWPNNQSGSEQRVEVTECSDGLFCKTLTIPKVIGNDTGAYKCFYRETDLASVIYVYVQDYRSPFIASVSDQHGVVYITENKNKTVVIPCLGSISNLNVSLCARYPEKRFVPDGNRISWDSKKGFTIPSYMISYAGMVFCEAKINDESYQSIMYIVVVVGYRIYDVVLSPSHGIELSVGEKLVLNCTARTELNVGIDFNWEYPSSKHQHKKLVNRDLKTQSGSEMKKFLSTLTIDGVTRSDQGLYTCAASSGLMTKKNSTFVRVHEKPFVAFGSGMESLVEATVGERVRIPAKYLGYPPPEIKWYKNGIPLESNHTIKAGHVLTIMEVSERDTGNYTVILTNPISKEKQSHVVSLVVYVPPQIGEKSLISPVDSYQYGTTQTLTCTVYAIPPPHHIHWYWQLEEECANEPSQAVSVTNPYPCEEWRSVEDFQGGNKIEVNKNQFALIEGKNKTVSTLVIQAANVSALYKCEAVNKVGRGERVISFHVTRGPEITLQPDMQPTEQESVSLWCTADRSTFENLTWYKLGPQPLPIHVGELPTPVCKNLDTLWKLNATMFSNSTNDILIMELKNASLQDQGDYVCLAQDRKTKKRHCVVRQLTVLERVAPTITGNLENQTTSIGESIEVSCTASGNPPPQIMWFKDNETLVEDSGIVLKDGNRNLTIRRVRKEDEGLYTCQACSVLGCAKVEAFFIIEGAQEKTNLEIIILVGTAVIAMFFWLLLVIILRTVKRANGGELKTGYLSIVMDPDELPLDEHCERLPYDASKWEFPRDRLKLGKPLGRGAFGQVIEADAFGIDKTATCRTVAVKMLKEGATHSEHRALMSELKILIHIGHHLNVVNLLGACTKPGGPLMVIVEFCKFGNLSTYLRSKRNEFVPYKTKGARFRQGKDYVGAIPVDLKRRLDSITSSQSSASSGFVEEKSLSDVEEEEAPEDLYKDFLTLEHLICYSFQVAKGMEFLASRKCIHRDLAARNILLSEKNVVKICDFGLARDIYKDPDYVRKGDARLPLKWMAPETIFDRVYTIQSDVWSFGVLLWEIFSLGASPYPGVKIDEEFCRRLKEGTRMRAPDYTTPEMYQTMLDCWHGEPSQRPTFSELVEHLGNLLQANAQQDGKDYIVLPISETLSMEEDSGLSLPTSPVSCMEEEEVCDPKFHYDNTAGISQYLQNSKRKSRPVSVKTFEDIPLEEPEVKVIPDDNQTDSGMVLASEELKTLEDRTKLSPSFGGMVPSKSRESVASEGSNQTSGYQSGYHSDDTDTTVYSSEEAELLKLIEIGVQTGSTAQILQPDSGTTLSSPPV
# [18] = target: PAK2 (Homo sapiens, UniProt Q13177); conditions: cited from earlier work
# Sequence of PAK2 (Q13177 whole entry): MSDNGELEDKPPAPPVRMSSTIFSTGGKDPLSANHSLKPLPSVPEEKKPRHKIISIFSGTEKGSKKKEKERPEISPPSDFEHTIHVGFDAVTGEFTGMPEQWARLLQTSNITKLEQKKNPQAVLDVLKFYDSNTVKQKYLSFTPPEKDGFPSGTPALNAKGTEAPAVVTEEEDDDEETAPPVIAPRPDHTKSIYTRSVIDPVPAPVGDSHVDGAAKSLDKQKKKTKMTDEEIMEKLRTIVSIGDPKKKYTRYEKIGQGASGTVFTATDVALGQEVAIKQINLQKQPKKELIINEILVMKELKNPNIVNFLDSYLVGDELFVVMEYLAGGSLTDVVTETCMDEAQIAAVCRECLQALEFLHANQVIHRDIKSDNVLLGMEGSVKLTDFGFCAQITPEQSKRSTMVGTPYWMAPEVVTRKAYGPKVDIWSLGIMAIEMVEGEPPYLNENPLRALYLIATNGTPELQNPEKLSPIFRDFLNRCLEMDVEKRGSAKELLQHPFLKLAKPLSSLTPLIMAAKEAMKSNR
# [19] = target: PAK3 (Homo sapiens, UniProt O75914); conditions: cited from earlier work
# [20] = target: PKBα (Homo sapiens, UniProt P31749); conditions: cited from earlier work
# Sequence of PKBα (P31749 whole entry, species assumed): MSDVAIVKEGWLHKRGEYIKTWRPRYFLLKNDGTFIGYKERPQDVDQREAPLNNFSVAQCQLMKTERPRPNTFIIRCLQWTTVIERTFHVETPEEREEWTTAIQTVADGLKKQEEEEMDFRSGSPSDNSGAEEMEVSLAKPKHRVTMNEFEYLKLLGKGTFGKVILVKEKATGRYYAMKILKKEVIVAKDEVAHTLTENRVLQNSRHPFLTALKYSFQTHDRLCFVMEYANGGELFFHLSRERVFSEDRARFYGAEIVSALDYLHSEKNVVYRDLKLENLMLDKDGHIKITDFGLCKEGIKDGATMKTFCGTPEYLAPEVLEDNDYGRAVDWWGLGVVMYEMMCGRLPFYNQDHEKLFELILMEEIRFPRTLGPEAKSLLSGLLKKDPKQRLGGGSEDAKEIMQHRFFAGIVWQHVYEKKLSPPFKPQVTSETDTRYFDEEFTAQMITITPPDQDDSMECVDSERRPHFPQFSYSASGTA
# [21] = target: PLK3 (Homo sapiens, UniProt Q9H4B4); conditions: cited from earlier work
# Sequence of PLK3 (Q9H4B4 whole entry, species assumed): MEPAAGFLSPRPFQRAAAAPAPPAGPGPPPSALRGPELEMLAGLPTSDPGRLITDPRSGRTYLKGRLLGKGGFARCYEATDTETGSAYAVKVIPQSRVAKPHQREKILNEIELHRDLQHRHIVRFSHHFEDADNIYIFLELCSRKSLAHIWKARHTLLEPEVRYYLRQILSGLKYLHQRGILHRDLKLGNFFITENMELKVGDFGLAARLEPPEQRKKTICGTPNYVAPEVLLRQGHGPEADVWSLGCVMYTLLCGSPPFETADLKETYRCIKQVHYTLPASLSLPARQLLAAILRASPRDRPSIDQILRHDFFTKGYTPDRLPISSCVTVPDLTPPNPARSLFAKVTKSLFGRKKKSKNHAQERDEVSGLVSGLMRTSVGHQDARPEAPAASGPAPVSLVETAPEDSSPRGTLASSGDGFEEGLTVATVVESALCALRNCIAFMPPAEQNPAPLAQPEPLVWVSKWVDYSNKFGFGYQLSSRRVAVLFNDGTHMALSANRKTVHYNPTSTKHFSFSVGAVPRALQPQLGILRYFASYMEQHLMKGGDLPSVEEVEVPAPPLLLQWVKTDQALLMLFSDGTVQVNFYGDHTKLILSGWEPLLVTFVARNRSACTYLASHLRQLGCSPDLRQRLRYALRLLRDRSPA
# [22] = target: Src (Homo sapiens, UniProt P12931); conditions: cited from earlier work
# [23] = cited from earlier work; remark: listed apart in the source
compound,measurement,setting,value
"CN1C/C=C/CCOc2cccc(c2)-c2ccnc(n2)Nc2cccc(c2)C1 [TG02, (16E)-14-methyl-20-oxa-5,7,14,27-tetraazatetracyclo[19.3.1.12,6.18,12]heptacosa-1(25),2(27),3,5,8(26),9,11,16,21,23-decaene]",resistance to TG02,[1],promoted resistance to TG02
same,cell number,[2],significant decreases in cell number
same,apoptosis (Annexin-PI),"[3]; 48 h, vs DMSO vehicle control",induction of apoptosis; also recorded: increased populations in early apoptosis
same,"viable cells (Annexin negative, PI negative)","[3]; 48 h, vs DMSO vehicle control",decreased viable cells
same,cell growth,[3]; vs vehicle,diminished cell growth
same,phosphorylation of MYC(S62) by ERK5,[4],inhibited
same,"cell viability, RT and TG02","[5]; 50 nM TG02 and 10 Gy of RT (2-Gy fractions over 5 days), Day 5, compared to RT or TG02 only",statistically significant reduction in cell viability
same,"cell viability, TG02 alone","[5]; 50 nM of TG02, Day 5, vs DMSO control",significantly reduced cell viability
same,IC50,[6],11 nM
same,IC50,[7],14 nM
same,IC50,[8],15 nM
same,inhibition at 100 nm,[9],less than 50%
same,inhibition at 100 nm,[10],less than 50%
same,inhibition at 100 nm,[11],less than 50%
same,inhibition at 100 nm,[12],less than 50%
same,inhibition at 100 nm,[13],less than 50%
same,inhibition at 100 nm,[14],less than 50%
same,inhibition at 100 nm,[15],less than 50%
same,inhibition at 100 nm,[16],less than 50%
same,inhibition at 100 nm,[17],less than 50%
same,inhibition at 100 nm,[18],less than 50%
same,inhibition at 100 nm,[19],less than 50%
same,inhibition at 100 nm,[20],less than 50%
same,inhibition at 100 nm,[21],less than 50%
same,inhibition at 100 nm,[22],less than 50%
same,peak concentration in plasma,"[23]; adults, single dose of 200 mg","4,000 ng/mL"
same,Cmax and AUC0-t dose dependence,[23]; doses between 10 and 200 mg,dose-proportional increase
same,t1/2,[23]; in vivo,approximately 18 hrs
